This note sets out measurements from patent US7871808B2, “Isolated microorganism having an ability to produce L-histidine” (priority 1999, dated 2011).

Counter-ions that a name gives are not always drawn.

The test system of the experiment is mutant strain H-9341. Briefly: Comparative test of growth on agar plate culture medium containing primaquine (mutant strain). Conditions: 150 mg/liter primaquine disodium salt in agar plate medium, 1 to 10 cells/cm^2, 33° C. for 4 days. It counts as cell-based, Escherichia coli.

Take `COc1cc(NC(C)CCCN)c2ncccc2c1` (stereo not shown) [Primaquine disodium salt, primaquine disodium salt]: the “Growth or non-growth of the strain on agar plate medium” value is “+”.
